Measured values from patent US20040053282A1, “Method of examining allergic disease” (priority 2000, published 2004).

Experiments:
mouse intersectin 2 gene = assay: Intersectin 2 gene expression in ear tissue of DNFB-coated mouse allergic reaction model (TaqMan, ABI 7700); format: in vivo; conditions: mouse ear tissue mRNA, day 6, corrected with 18S gene, value of CONT. taken as 1; four mice each; prednisolone oral day 0 to day 6
Experimental: Using a 2,4-dinitrofluorobenzene (DNFB) coated mouse as a model for an allergic reaction, changes in the expression level of the intersectin 2 gene in the mouse were observed. DNFB is a substance that is used as a hapten to cause allergic dermatitis reaction in a laboratory animal such as a mouse.
Day 0: The abdominal region was shaved by an electric clipper and 25 μL of the sensitizing solution was applied to the abdominal region.
Day 1: In a similar manner to the previous day, 25 μL of the sensitizing solution was applied to the abdominal region.
Day 5: 5 μL/ear of challenge solution was applied to both ears. […]
The expression level of the intersectin 2 gene was quantified by the TaqMan method (as mentioned above) using ABI 7700 and using mRNA sample extracted from the mouse ear tissue. […]
PCR was carried out using 25 μL of 2× Master Mix without UNG, 1.25 μL of 40×MultiScribe and RNase Inhibitor Mix, 0.25 μL of 10 μM primer, and 0.625 μL of 4 μM TaqMan Probe derived from One-step RT-PCR Master Mix Reagents (PE Biosystems), and RNA (2 ng)+DEPC resulting in total volume of 50 μL. […] To correct the differences of cDNA concentration among the samples, a similar quantitative analysis was performed on the 18S gene, and the value for the gene of interest was divided by the value for 18S, and indicated as taking the value of CONT. as 1. […]

[1] = test system: "1835-17" (intersectin 2 gene); assay: Change in gene expression in human peripheral blood eosinophils due to stimulation by cytokines (TaqMan, ABI 7700); format: cell-based; conditions: eosinophils of a healthy subject, cytokine 0.1, 1 and 10 ng/ml, 3 hours culture, GAPDH corrected, FIG. 4
Experimental: The change in gene expression due to cytokine stimulation in eosinophils isolated from 100 ml of peripheral blood from a healthy subject was studied. Isolation of eosinophils was carried out as described above. Eosinophils were plated onto a 24-well plate (1×10^6 cells/mL). The plate was pre-coated with 1% BSA (immobilizing blocking buffer) at room temperature for 2 hours in order to prevent activation due to adhesion of eosinophils. As cytokines, 0.1, 1, and 10 ng/ml each of interleukin 5 (IL-5), interleukin 4 (IL-4), interferon γ (IFNγ), granulocyte macrophage colony stimulating factor (GM-CSF), and eotaxin were added to each well, and this was cultured for 3 hours in DMEM supplemented with 10% FCS. All of these cytokines are those considered to be related to activation of eosinophils and onset of allergies.
RNAs were prepared in the same manner as in Example 1 for each of the treated eosinophils, and were subjected to gene expression analysis. The primers, probes, and such used were the same as described above. The result at 3 hours after starting the culture is shown in FIG. 4 (value was corrected with GAPDH for the number of copies per 1 ng of RNA).

With `O=[N+]([O-])c1ccc(F)c([N+](=O)[O-])c1` [DNFB, 2,4-dinitrofluorobenzene] the “relative expression level of intersectin 2 gene (Average)” value (mouse intersectin 2 gene) was 2.04.

For `C[C@]12C=CC(=O)C=C1CC[C@@H]1[C@@H]2[C@@H](O)C[C@@]2(C)[C@H]1CC[C@]2(O)C(=O)CO` [S, prednisolone], the “relative expression level of intersectin 2 gene (Average)” value (mouse intersectin 2 gene) was 1.04.

For IL-5: cytokine interleukin 5, the “expression of "1835-17" (intersectin 2 gene)” value [1] was “increases”.

B1: IFNγ: cytokine interferon γ (protein, UniProt P01579 24-161, looked up)
Interferon gamma: QDPYVKEAENLKKYFNAGHSDVADNGTLFLGILKNWKEESDRKIMQSQIVSFYFKLFKNFKDDQSIQKSVETIKEDMNVKFFNSNKKKRDDFEKLTNYSVTDLNVQRKAIHELIQVMAELSPAAKTGKRKRSQMLFRG
With B1 the “expression of "1835-17" (intersectin 2 gene)” value [1] was “induced”.

B2: IL-4: cytokine interleukin 4 (protein, UniProt P05112 25-153, looked up)
Interleukin-4: HKCDITLQEIIKTLNSLTEQKTLCTELTVTDIFAASKNTTEKETFCRAATVLRQFYSHHEKDTRCLGATAQQFHRHKQLIRFLKRLDRNLWGLAGLNSCPVKEANQSTLENFLERLKTIMREKYSKCSS
B2 was tested, and the “expression of "1835-17" (intersectin 2 gene)” value [1] was “induced”.
